# According to patent publication US7875602B2 (priority 2005, dated 2011):
# Where a name gives a salt, the structure may show the parent alone.
# Tests used:
# [1] = system: PC-3 human prostate cancer cells; assay: In vitro chemoradiosensitization, cell colony count; format: cell-based; details: for radiosensitivity of the cancer cell after prior exposure: 5 nM, 2 h exposure before X-rays; for Survival (%): Radiation + compound at 5 nM, 2 h drug exposure
# Method: (§1) Chemoradiosensitizing effects of compound 13, compound 10, and compound 20 on human cancer cells were evaluated at a dose of 5 nM. PC-3 human prostate cancer cells were plated on petri dishes in triplicates were allowed to attach. After irradiation, cells were rinsed with HBSS (Hank's balanced salt solution), and covered with fresh media. Cells were cultured for 8-9 days in a 37° C. incubator. The resulting cell colonies were stained and counted. […] Other compounds of this invention can similarly be evaluated in accordance with this method.
# [2] = Acute toxicity, MTD40 (maximum tolerated dose at day 40); format: in vivo, C3H/HeN mice; details: i.p. injection, mice checked daily for 45 days; values only in FIG. 3
# Method: Drugs were dissolved in cremophor:alcohol (1:1) and diluted in saline to a 5% cremophor, 5% alcohol, 90% saline for i.p. injection.
# Acute toxicities of a compound of this invention, compound 13, topotecan, CPT and cisplatin were evaluated on C3H/HeN mice (female, 6-8 week old, body weight 18-20 g). The MTD40 (maximum tolerated dose at day 40) values were determined. In the consecutive type studies, 6 mice were dosed at moderate doses of 10, 70, or 106.98, or 141.47, or 187.1 mg/kg. If no severe and irreversible toxicity (euthanasia is required) occurred at these doses, additional 6 animals were initiated at a dose which is 1.3225-1.5283 times higher than the previous non-toxic doses. Sequential dosages (261.94, or 366.72, or 500 mg/kg) were increased until severe and irreversible toxicity (whereby euthanasia is required) occurs. […] The result of this exercise was two dosages, one apparently nonlethal and the other lethal if severe and irreversible toxicity occurred and euthanasia was required. Six mice were dosed at each dosage. If no severe and irreversible toxicity occurred at the lower dosage and at least one with severe and irreversible toxicity at the higher dose, then the lower dose was considered to the MTD. […] Drug toxicity was evaluated on mice, checked daily for 45 days. […] Other compounds of this invention can similarly be evaluated in accordance with this method.
# [3] = system: DMS-14 small lung cancer cells; assay: In vitro chemoradiosensitization, cell colony count; format: cell-based, human; details: for Survival (%): Radiation + compound at 5 nM, 2 h drug exposure
# Method: as §1, with “13” for “13, compound 10, and compound 20”, “DMS-14 small lung” for “PC-3 human prostate”
# [4] = system: PC-3 human prostate cancer cells; assay: Chemotherapeutic activity, cell colony count after 24 hr drug exposure; format: cell-based; details: 24 hr exposure
# Method: (§2) Chemotherapeutic effects of compound 13 on human prostate cancer cells (PC-3 and DU-145) were evaluated at dose concentrations between 0 and 10 nM. Cells plated on Petri dishes in triplicates were allowed to attach, then cells were subjected to 24 hr drug exposure at 37° C. The cells were then rinsed with HBSS ((Hank's balanced salt solution) and covered with fresh media. Cells were cultured for 8-9 days in a 37° C. incubator. The resulting cell colonies were stained and counted. Results are presented in Table 4.
# [5] = system: DU-145 human prostate cancer cells; assay: as above; format: cell-based; details: 24 hr exposure
# Method: as §2
# [6] = system: PC-3: human prostate cancer cell line; format: cell-based; details: for IC50: Homo sapiens, 72 h, read-out: IC50 (nM) PC-3
# [7] = system: MTG-B mouse mammary adenocarcinoma tumors; assay: In vivo chemoradiosensitization in tumor-bearing mice; set-up: species or system C3H/HeN mice; details: single i.p. injection at MTD
# Method: To determine whether the pronounced effects of compound 13 in tissue culture could be duplicated in solid tumors, in vivo chemoradiosensitization studies were performed on C3H/HeN mice bearing MTG-B mouse mammary adenocarcinoma tumors. Prior to treatment, the tumor grew exponentially following implantation into the flanks of the mice and reached a diameter of 8 mm (268.08 cu. mm) by day 7 to 10. The mice were injected i.p. with compound 13 at MTD using a single injection and then irradiated with a radiation dose of 22 Gy 24 h after the injection. Control groups of mice bearing 8 mm diameter tumors were treated with vehicle alone, or radiation alone, or drug alone. After treatment, tumor sizes were measured by caliper every day. Daily measurement of the tumor diameters (d1, d2) in two orthogonal directions were used to calculate the tumor volume (tumor volume=π/6{(d1+d2)/2}^3) using the approximation that the tumors were spherical (results shown in FIG. 1). The values of time (days) required to grow the tumor to twice their initial size after various treatments were calculated as tumor doubling time (TDT) (±SE) for evaluating the treatment effects. Survival times and curative effects after treatment were also be observed and recorded. Other compounds of this invention can similarly be evaluated in accordance with this method.
# [8] = compound plus radiation, 22 Gy 24 h after the injection
Structure (SMILES),melting point,radiosensitivity of the cancer cell after prior exposure [1],Survival (%) ([1]; X-rays 0 Gy),Survival (%) ([1]; X-rays 1 Gy),Survival (%) ([1]; X-rays 2 Gy),Survival (%) ([1]; X-rays 4 Gy),IC50 [6],further results
CC[C@@]1(OC(=O)[C@@H](C)ON=C2c3cc([N+](=O)[O-])cc([N+](=O)[O-])c3-c3c2cc([N+](=O)[O-])cc3[N+](=O)[O-])C(=O)OCc2c1cc1n(c2=O)Cc2cc3c(CN(C)C)c(O)ccc3nc2-1 (as salt: hydrochloride) [Compound 10],210 to 213 °C (dec.),–,–,–,–,–,–,–
CC[C@@]1(OC(=O)CON=C2c3cc([N+](=O)[O-])cc([N+](=O)[O-])c3-c3c2cc([N+](=O)[O-])cc3[N+](=O)[O-])C(=O)OCc2c1cc1n(c2=O)Cc2cc3c(CN(C)C)c(O)ccc3nc2-1 (as salt: hydrochloride) [Compound 16],210 to 215 °C (dec.),–,–,–,–,–,–,–
CC[C@@]1(OC(=O)[C@@H](C)ON=C2c3cc([N+](=O)[O-])cc([N+](=O)[O-])c3-c3c2cc([N+](=O)[O-])cc3[N+](=O)[O-])C(=O)OCc2c1cc1n(c2=O)Cc2cc3c(CN(C)C)c(O)ccc3nc2-1 [Compound 10],–,significantly increased the radiosensitivity,100%,90%,66%,21%,–,–
CC[C@@]1(OC(=O)[C@@H](C)ON=C2c3cc([N+](=O)[O-])cc([N+](=O)[O-])c3-c3c2cc([N+](=O)[O-])cc3[N+](=O)[O-])C(=O)OCc2c1cc1n(c2=O)Cc2cc3ccccc3nc2-1 [Compound 13],–,significantly increased the radiosensitivity,100%,83%,60%,22%,5 nM,"toxicity compared with camptothecin and topotecan [2]: Decreased Toxicity; radiosensitivity of the cancer cell after prior exposure ([3]; 5 nM, 2 h exposure before X-rays): significantly increased the radiosensitivity; Survival (%) ([3]; X-rays 0 Gy): 100%; Survival (%) ([3]; X-rays 2 Gy): 44%; Survival (%) ([3]; X-rays 4 Gy): 23%; Survival (%) ([3]; X-rays 8 Gy): 3%; PC-3 Cells % Survival ([4]; drug conc. 1 nM): 98%; PC-3 Cells % Survival ([4]; drug conc. 5 nM): 52%; PC-3 Cells % Survival ([4]; drug conc. 10 nM): 10%; DU-145 Cells % Survival ([5]; drug conc. 1 nM): 82%; DU-145 Cells % Survival ([5]; drug conc. 5 nM): 43%; DU-145 Cells % Survival ([5]; drug conc. 10 nM): 5%; Survival ([7]; compound alone): 24 days; TDT (days), tumor doubling time ([7]; compound alone): 12 days; Survival [7, 8]: 90 days; TDT (days), tumor doubling time [7, 8]: 33 days"
CC[C@@]1(OC(=O)[C@H](C)ON=C2c3cc([N+](=O)[O-])cc([N+](=O)[O-])c3-c3c2cc([N+](=O)[O-])cc3[N+](=O)[O-])C(=O)OCc2c1cc1n(c2=O)Cc2cc3ccccc3nc2-1 [Compound 17],–,–,–,–,–,–,6 nM,–
CC[C@@]1(OC(=O)[C@@H](C)ON=C2c3cc([N+](=O)[O-])cc([N+](=O)[O-])c3-c3c2cc([N+](=O)[O-])cc3[N+](=O)[O-])C(=O)OCc2c1cc1n(c2=O)Cc2cc3cc(O)ccc3nc2-1 [Compound 20],210 to 215 °C (dec.),significantly increased the radiosensitivity,100%,82%,65%,22%,6 nM,–
"CC[C@@]1(O)C(=O)OCc2c1cc1n(c2=O)Cc2cc3c(CN(C)C)c(O)ccc3nc2-1 [Topotecan, (20S)-9-dimethylaminomethyl-10-hydroxy CPT, reference compound]",–,–,–,–,–,–,–,"IC50 (nM) PC-3 ([6]; 72 hours drug incubation, 50% inhibition of colony formation): no effect"
